The record followed here is patent publication US20040122209A1, “Products for regulating the degradation of collagen and methods for identifying same” (Shriners Hospital For Children, priority 2002, published 2004).

Format in all cases: cell-based
Assay [1] has as its system adult human articular cartilage. As to the kind of experiment: RT-PCR of hypertrophy and degradation genes in human articular cartilage explant culture. On the procedure:
Total RNA was isolated from chondrocytes or cartilage explants by the guanidine isothiocyanate procedure according to Chomczynski and Sacchi (Chomczynski, P. et al., Anal. Biochem. 162:156-9 (1987)) with some modifications. Briefly, chondrocytes (1-2×10^6 cells) or cartilage tissue (200-300 mg) were solubilized in solution D (4 M guanidine isothiocyanate, 20 mM sodium acetate/pH 5.2, 0.1 M 2-mercaptoethanol and 0.5% N-lauroylsarcosine). One volume of isopropanol was added to the mixture and all proteins and nucleic acids were precipitated at −20° C. overnight. […] The total RNA pellet was resuspended in diethyl pyrocarbonate-treated (DEPC) water and the amount of total RNA was measured by reading optical density at 260 nm. […]
One microliter of reverse transcribed total RNA was incubated with 2.5 U of AmpliTaq™ DNA polymerase (Perkin Elmer, Branchburg, N.J.) in 50 mM KCl, 1.5 mM MgCl2, 10 mM Tris-HCl, pH 8.3, 200 μM dNTP mix and 0.5 μmol each of oligonucleotide primers in 50 μl reaction mixture. […] The digital images of the gel were analyzed using NIH 1.60 imaging software to evaluate the pixel intensity of the band of the PCR products. […] The band intensities were determined to be below saturation. […]
MMP-13 expression was maximal by 12 days. Gene expression was determined by RT-PCR analyses of mRNA in the manner used to detect expression of MMPs and cytokines described elsewhere. […]

In the next assay the test system is MMP-13. As to the kind of experiment: ELISA for MMP-13 in conditioned medium of human chondrocytes. Particulars: 48 hours; CB12-II 50 μM, TNF-α 50 ng/ml. As to the method:
First-passaged normal human chondrocytes isolated by the method described above and cultured at high density (2×10^5 cells/cm^2) were trypsinized and resuspended in Medium A containing 1% FCS at a density of 10^6 cells/ml. Then, 200 μl of the cell suspension was each plated onto round-bottomed 96-well culture plate. On the next day after plating, CB12-II at 50 μM, USP at 50 μM, and TNF-α at 50 ng/ml were added to the culture media, and the culture was maintained for 24-48 hours. Conditioned media were collected and subjected to ELISA assay. The ELISA kits (BIOTRAK) for MMP-1 and MMP-13 were purchased from Amersham Pharmacia Biotech (Piscataway, N.J.). Measurement range was 6.25-100 ng/ml for MMP-1 and 0.094-3 ng/ml for MMP-13. Sensitivity for the assay was 1.7 ng/ml for MMP-1 and 0.7 ng/ml for MMP-13.
Protein levels of MMP-1 and MMP-13 were also tested by incubating isolated human chondrocytes for 48 hours in high density culture (10^6 cells/ml) with CB12-II, negative control peptide USP, or cytokine TNF-α, as discussed above. MMP-1 and MMP-13 secretion into medium from the cells was measured using ELISA (see FIGS. 9A and 9B).
(In general: An ELISA detects its analyte on a solid surface through an enzyme-linked reagent.)

In the next assay the test system is MMP-1. Nature of the assay: RT-PCR of MMP-1 mRNA in human chondrocyte culture. Particulars: 24 hours incubation; data not shown. The source says: Isolated normal human chondrocytes were used for chondrocyte cultures, detection of integrin expression by FACScan, and cell attachment assays. The dissected normal human cartilage obtained at autopsy was cut into small cubes 2-4 mm in size. Chondrocytes were isolated as previously described (34), with some modifications. Briefly, the cubes were washed three times with medium (A). Thereafter, the diced cartilage was digested with 0.1% (wt/vol) trypsin (Sigma) and 0.02% (wt/vol) EDTA (Sigma) for 60 minutes (25 ml/10 g wet weight tissue) at 37° C. After washing the cartilage with Medium A containing 10% heat-inactivated fetal calf serum (FCS) to inhibit the trypsin, the digestion was continued in the same medium with serum (50 ml/10 g wet weight tissue) containing 0.2% (wt/vol) collagenase (type IA; Sigma) for 16 h at 37° C. with gentle agitation on a gyrotary shaker. Undigested cartilage was removed by filtration through a layer of nylon mesh (Cell Strainer; Becton Dickinson Labware, NJ). […]
Total RNA was isolated from chondrocytes or cartilage explants by the guanidine isothiocyanate procedure according to Chomczynski and Sacchi (Chomczynski, P. et al., Anal. Biochem. 162:156-9 (1987)) with some modifications. […] The total RNA pellet was resuspended in diethyl pyrocarbonate-treated (DEPC) water and the amount of total RNA was measured by reading optical density at 260 nm. […]

Turning to ERGPPGPQGARGFPGTPGLPGVK [CB12-II], in assay [1], the “time at which MMP-13 expression was maximal” value was at most 12 days. For the same sequence, the “expression of genes characteristic of chondrocyte hypertrophy (COLX, MMP-9, TGF-B1, IHH, MMP-13, CBFA1, SOX 9, bFGF, pTHrP, caspase-3, MT1-MMP, IL-1B, MMP-1)” value in assay [1] (induction within a 24-48 hr period) was “rapid induction”. Besides, in the assay with MMP-13, the “MMP-13 secretion into medium versus no peptide and negative control peptide (USP)” value is listed as “significantly higher”. Also, in the assay with MMP-1, the “MMP-1 gene expression (mRNA by RT-PCR)” value is listed as “clearly induced”.
